Values of other authors as cited in patent publication US10912848B2, “Dual-purpose PAT/ultrasound contrast agent bound with nanoparticles containing drug and method for preparing same” (IMGT CO, LTD., priority 2014, dated 2021).
Like-named read-outs stand apart in the source and are kept apart here.

Details: 25° C.

volume of solvent required to dissolve 1 g of drug (H2O): 300 mL
volume of solvent required to dissolve 1 g of drug (ethanol): 5 mL
Structure (SMILES): CC(=O)Oc1ccccc1C(=O)O [aspirin]
